ChEMBL document CHEMBL1201862, “PubChem BioAssay data set” (2004)
Activity calls are given as the source filed them.

Key:
[1] = molecular target: T1, Lysine-specific demethylase 4C (Homo sapiens, UniProt Q9H3R0); assay: inhibition of JMJD2C H3K9me3 demethylation – biochemical, DELFIA europium, cherry-picked samples, dose response (AID 488835); format: functional
T1 sequence (Q9H3R0 whole entry): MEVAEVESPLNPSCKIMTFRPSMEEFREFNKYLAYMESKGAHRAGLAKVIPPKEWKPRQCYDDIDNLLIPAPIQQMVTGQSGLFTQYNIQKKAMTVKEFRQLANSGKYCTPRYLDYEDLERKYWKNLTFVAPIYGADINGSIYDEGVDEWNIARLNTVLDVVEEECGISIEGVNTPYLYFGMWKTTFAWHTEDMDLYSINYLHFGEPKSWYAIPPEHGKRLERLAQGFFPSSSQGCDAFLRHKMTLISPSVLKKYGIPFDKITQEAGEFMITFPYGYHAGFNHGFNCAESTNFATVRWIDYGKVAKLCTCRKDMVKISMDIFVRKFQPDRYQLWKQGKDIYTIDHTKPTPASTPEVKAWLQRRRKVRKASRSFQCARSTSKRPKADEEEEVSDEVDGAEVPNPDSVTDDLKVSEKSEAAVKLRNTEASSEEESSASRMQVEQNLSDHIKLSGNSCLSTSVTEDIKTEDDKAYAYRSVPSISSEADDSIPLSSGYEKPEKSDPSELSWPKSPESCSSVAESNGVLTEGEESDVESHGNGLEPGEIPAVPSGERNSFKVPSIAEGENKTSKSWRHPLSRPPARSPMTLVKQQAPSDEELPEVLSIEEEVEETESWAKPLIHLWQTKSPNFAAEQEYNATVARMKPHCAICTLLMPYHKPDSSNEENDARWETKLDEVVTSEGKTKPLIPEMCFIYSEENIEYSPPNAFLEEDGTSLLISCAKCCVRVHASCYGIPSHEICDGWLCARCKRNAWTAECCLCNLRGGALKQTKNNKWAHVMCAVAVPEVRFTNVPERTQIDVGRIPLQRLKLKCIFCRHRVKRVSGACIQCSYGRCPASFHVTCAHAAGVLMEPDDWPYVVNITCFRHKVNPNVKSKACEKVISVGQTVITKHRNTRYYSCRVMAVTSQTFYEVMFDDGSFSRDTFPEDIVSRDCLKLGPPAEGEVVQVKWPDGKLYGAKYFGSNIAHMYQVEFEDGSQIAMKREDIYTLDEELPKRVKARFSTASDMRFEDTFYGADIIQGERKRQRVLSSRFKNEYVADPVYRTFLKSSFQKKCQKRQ

[2] = Trypanosoma cruzi growth suppression in host cells – NIH3T3 host cells, beta-gal luminescence, confirmation (AID 2044); format: functional, cell-based;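 also: intracellular parasites grown in NIH/3T3 mouse fibroblasts as host cells; luminescent beta-galactosidase reporter signal from transgenic T. cruzi replicating inside host cells; inhibitors lower the luminescence signal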
[3] = molecular target: Nonstructural protein 1 (Influenza A virus, UniProt Q194T2); format: functional, Influenza A virus (A/California/07/2009(H1N1))
Chain of Nonstructural protein 1 (Q194T2 whole entry): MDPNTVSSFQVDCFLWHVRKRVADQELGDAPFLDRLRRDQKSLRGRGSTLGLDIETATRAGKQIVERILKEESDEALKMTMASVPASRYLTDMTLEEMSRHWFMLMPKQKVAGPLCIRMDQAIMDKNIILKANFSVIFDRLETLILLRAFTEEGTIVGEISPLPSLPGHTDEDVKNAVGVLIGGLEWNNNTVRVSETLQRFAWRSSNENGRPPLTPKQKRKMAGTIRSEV

[4] = molecular target: T2, X-box-binding protein 1 (Homo sapiens, UniProt P17861); format: functional, Cricetulus griseus;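 also: confirmatory dose-response counter-screen serving a CHOP assay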
T2 sequence (P17861 whole entry): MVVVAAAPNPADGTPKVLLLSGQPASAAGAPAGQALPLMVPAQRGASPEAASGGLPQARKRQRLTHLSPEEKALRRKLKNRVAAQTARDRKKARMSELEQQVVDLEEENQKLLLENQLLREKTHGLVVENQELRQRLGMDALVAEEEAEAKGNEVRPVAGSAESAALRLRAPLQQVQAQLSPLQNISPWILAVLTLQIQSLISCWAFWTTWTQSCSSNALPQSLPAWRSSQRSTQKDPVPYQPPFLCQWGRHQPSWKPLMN

[5] = molecular target: Heat shock protein HSP 90-alpha (Homo sapiens, UniProt P07900); format: functional, organism-based
[6] = molecular target: Fatty acid synthase (Homo sapiens, UniProt P49327); assay: inhibition of human FAS-TE enzyme activity – biochemical, kinetic fluorescence intensity, dose response (AID 624326); format: functional;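 also: rate of fluorescence rise from hydrolysis of a fluorogenic O-methyl fluorescein ester substrate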
Chain of Fatty acid synthase (P49327 whole entry): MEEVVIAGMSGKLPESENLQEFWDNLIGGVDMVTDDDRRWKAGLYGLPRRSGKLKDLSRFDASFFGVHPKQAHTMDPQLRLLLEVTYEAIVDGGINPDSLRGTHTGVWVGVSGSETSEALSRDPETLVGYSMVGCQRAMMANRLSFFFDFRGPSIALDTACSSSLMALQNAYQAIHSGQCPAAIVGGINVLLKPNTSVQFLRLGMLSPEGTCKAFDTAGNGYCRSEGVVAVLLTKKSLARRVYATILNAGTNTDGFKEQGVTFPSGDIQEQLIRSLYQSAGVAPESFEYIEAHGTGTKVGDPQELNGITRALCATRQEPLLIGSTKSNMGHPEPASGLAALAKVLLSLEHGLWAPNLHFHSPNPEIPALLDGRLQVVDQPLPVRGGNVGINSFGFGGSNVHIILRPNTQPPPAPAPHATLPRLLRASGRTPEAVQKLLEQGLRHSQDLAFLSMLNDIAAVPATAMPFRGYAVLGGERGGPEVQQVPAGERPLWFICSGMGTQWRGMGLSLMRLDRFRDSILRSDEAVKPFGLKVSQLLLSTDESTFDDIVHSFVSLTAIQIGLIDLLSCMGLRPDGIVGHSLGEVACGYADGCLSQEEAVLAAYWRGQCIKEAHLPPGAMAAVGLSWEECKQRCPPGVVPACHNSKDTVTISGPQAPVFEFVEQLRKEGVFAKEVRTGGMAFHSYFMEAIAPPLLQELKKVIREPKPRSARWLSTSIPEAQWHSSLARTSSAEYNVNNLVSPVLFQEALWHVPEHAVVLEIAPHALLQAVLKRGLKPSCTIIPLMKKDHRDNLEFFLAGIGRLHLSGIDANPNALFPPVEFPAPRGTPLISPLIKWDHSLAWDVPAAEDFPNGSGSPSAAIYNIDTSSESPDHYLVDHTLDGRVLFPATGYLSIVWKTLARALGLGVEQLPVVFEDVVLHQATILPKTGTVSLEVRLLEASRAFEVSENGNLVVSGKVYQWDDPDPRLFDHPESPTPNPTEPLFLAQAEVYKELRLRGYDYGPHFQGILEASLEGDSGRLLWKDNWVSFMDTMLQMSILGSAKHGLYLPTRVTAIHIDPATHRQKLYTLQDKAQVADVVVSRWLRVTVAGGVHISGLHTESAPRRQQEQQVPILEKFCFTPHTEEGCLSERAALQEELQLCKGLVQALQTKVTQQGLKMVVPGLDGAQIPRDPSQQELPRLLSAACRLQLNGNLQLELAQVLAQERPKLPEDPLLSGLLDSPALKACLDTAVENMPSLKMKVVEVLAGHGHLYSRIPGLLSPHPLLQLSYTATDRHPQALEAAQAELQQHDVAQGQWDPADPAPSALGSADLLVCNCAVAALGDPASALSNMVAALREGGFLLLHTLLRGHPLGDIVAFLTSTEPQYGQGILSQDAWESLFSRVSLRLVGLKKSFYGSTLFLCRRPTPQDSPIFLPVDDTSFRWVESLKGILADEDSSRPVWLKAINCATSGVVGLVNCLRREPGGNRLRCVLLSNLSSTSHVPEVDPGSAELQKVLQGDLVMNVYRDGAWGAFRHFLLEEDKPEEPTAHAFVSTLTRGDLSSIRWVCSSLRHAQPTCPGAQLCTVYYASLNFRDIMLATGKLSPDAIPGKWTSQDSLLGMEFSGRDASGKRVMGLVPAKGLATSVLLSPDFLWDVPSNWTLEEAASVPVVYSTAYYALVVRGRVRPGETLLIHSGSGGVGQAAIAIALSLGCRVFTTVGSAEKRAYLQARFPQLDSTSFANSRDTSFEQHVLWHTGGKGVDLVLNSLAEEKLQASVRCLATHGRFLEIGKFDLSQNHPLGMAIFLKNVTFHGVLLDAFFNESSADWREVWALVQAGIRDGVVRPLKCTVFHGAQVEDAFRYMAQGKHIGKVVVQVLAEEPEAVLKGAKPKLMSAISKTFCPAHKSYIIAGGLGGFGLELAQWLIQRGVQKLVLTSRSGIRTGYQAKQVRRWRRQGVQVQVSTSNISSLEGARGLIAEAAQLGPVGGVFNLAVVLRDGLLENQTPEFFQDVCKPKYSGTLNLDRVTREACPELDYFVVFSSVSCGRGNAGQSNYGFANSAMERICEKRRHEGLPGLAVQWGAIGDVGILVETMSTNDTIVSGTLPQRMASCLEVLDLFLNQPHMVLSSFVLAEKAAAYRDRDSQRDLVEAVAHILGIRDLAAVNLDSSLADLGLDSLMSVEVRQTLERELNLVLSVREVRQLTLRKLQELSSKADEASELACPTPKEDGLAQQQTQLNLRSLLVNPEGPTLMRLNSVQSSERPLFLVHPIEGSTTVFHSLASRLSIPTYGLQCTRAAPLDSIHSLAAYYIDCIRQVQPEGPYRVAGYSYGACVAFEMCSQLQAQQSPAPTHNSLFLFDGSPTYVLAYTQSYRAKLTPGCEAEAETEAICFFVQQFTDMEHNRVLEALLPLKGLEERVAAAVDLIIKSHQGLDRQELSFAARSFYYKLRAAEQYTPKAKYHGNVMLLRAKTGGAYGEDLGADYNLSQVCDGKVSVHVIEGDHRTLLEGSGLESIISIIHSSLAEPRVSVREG

Row | SMILES | AC50 [1] | EC50 [2] | IC50 [3] | Absolute IC50 (XBP1) [4] | AC50 [5] | IC50 [6]
1 | O=C1c2ccccc2C(=O)C12OC2c1cccc2ccccc12 (stereo unspecified) | 6.61 µM (active) | – | – | – | – | –
2 | O=[N+]([O-])c1ccc(Sc2nc3ccccc3o2)c([N+](=O)[O-])c1 | – | 1.27 µM (active) | 34.2 µM (active) | 10 µM | 2.22 µM (active) | 10.1 µM (active)
